Laboratory results from US20250214977A1, “STAT6 INHIBITORS AND USES THEREOF” (Kymera Therapeutics, Inc., priority 2024, published 2025).
Several values for one entry are separate records, joined by “and”; a condition that tells them apart may be missing. Identical values can stand only once.

system: Phosphorylation of STAT6 in human A549 cells; assay: Phosphorylated STAT6 (pSTAT6) flow cytometry assay in human A549 cells; assay type: cell-based; conditions: read-out: STAT6 IL4 pSTAT6 assay in A549 cells: Average IC50
Source text: Example 3. Phosphorylated STAT6 (pSTAT6) Flow Cytometry Assay in Human A549 Cells
Phosphorylation of STAT6 in human A549 cells was quantitatively measured using flow cytometry technology.

Compound | IC50
COc1cc(F)cnc1N1CCN(C(=O)c2cc3c(Br)cc(C4=CCCN(C(=O)CCn5ccnn5)C4)c(F)c3[nH]2)CC1 [Example I-806, 1-(5-(4-bromo-7-fluoro-2-(4-(5-fluoro-3-methoxypyridin-2-yl)piperazine-1-carbonyl)-1H-indol-6-yl)-3,6-dihydropyridin-1(2H)-yl)-3-(1H-1,2,3-triazol-1-yl)propan-1-one] | 10 to 100 µM and 0.1 to 1 µM
CCn1ncc2c1CN(C(=O)c1cc(C3CC3)c3c(c1)cc(C1=CCCN(C(=O)CCn4ccnn4)C1)n3CC1CC1)C2 [Example I-768] | > 100 µM
CC(=O)N1CCC=C(c2cc(-c3ccc(F)cc3O)c3cc(C(=O)N(C)C)[nH]c3c2F)C1 [Example I-891] | 0.1 to 1 µM
COc1ccncc1-c1cc(C2=CCCN(C(=O)CCn3ccnn3)C2)c(F)c2[nH]c(C(=O)N3CC=C(c4ncccc4OC)CC3)cc12 [Example I-452] | > 100 µM
COc1ccccc1-c1cc(C2=CCCN(C(=O)CCn3ccnn3)C2)c(F)c2[nH]c(C(=O)N3CCN(c4ncc(C5CC5)cc4OC4CC4)CC3)cc12 [Example I-413] | 0.1 to 1 µM
COc1ccccc1-c1cc(C2=CCCN(C(=O)CCn3ccnn3)C2)c(F)c2[nH]c(CN3CCN(c4ncccc4OC)CC3=O)cc12 [Example I-1171] | 0.1 to 1 µM
COc1cc(F)cnc1N1CCN(C(=O)c2cc3c(-c4ccc(F)c(C)c4)cc(C4=CCCN(C(=O)CCn5ccnn5)C4)c(F)c3[nH]2)CC1 [Example I-676] | 0.1 to 1 µM
CCc1ccc(-c2cc(C(=O)N3CCN(c4ncc(F)cc4OC)CC3)cc3cc(C4=CCCN(C(=O)C5CC5C(=O)O)C4)n(CC4CC4)c23)c(C)n1 (stereo not drawn) [Example I-550] | > 100 µM
COc1ccccc1-c1cc(C2=CCCN(C(=O)CCn3ccnn3)C2)c(F)c2[nH]c(C(=O)N3CCN(c4cnccc4OC)CC3)cc12 [Example I-465] | > 100 µM
COc1ccccc1-c1cc(C2=CCCN(C(=O)CCn3ccnn3)C2)c(F)c2[nH]c(C(=O)N3CCN(c4cccc(OC(F)(F)F)n4)CC3)cc12 [Example I-430] | 0.1 to 1 µM
CCOc1cc(-c2cc(C3=CCCN(C(=O)CCn4ccnn4)C3)c(F)c3[nH]c(C(=O)N4CCN(c5ncc(F)cc5OC)CC4)cc23)cc(F)c1F [Example I-642] | 0.1 to 1 µM
COC(=O)CCC#Cc1cccc2c1CC(C(=O)N1CCC=C(c3ccc4oc(C(=O)N(C)C)cc4c3)C1)N(C=O)C2 (stereo not drawn) [Example I-802, Methyl 5-(3-(5-(2-(dimethylcarbamoyl)benzofuran-5-yl)-1,2,3,6-tetrahydropyridine-1-carbonyl)-2-formyl-1,2,3,4-tetrahydroisoquinolin-5-yl)pent-4-ynoate] | 0.1 to 1 µM
COc1ccccc1-c1cc(C2=CCCN(C(=O)CCn3ccnn3)C2)c(F)c2[nH]c(C(=O)N3CCN(c4ccccc4C(F)(F)F)CC3)cc12 [Example I-968] | 0.1 to 1 µM
CCn1ncc2c1CN(C(=O)c1cc3c(-c4cnc(C5CC5)cc4C)cc(C4=CCCN(C(=O)CCn5ccnn5)C4)c(F)c3[nH]1)C2 [Example I-766] | > 100 µM
COCOc1ccc(F)cc1-c1cc(C2=CCCN(C(=O)CCn3ccnn3)C2)c(F)c2[nH]c(C(=O)N3CCN(c4ncc(F)cc4OC)CC3)cc12 [Example I-660] | < 0.1 µM
Cc1ccc(-c2cc(C3=CCCN(C(=O)CCn4ccnn4)C3)cc3cc(C(=O)N(C)C)oc23)cn1 [Example I-1084] | < 0.1 µM
COc1ccccc1-c1cc(C2=CCCN(C(=O)CCn3ccnn3)C2)c(F)c2[nH]c(C(=O)N3CCN(c4ccc5c(c4)Nc4ccccc4CC5)CC3)cc12 [Example I-947] | 1 to 10 µM

Compound | IC50
COc1cc(N(C)C)ccc1-c1cc(C2=CCCN(C(=O)CCn3ccnn3)C2)c(F)c2[nH]c(C(=O)N3CCN(c4ncccc4OC4CC4)CC3)cc12 [Example I-609] | < 0.1 µM
COc1cccnc1N1CCN(C(=O)c2cc3c(-c4cccc5c4OC(F)(F)O5)cc(C4=CCCN(C(=O)CCn5ccnn5)C4)c(F)c3[nH]2)CC1 [Example I-690] | < 0.1 µM
COc1ccccc1-c1cc(C2=CCCN(C(=O)CCn3ccnn3)C2)c(F)c2[nH]c(C(=O)N3CCN(c4ccccc4OC(F)(F)F)CC3)cc12 [Example I-420] | 0.1 to 1 µM
COc1cccnc1N1CCN(C(=O)c2cc3c(C4=C(C)CCCC4)cc(C4=CCCN(C(=O)CCn5ccnn5)C4)c(F)c3[nH]2)CC1 [Example I-569] | < 0.1 µM
COc1cc(F)ccc1-c1cc(C2=CCCN(C(=O)CCn3ccnn3)C2)c(F)c2[nH]c(C(=O)N3CCN(c4ccccc4OC)CC3)cc12 [Example I-598] | < 0.1 µM
COc1cc(F)cnc1N1CCN(C(=O)c2cc3c(/C=C/CCl)cc(C4=CCCN(C(=O)CCn5ccnn5)C4)c(F)c3[nH]2)CC1 [Example I-1162] | 1 to 10 µM
COc1cnccc1-c1cc(C2=CCCN(C(=O)CCn3ccnn3)C2)c(F)c2[nH]c(C(=O)N3CCN(c4ncc(Cl)cc4OC)CC3)cc12 [Example I-457] | < 0.1 µM
COc1c(-c2cc(C3=CCCN(C(=O)CCn4ccnn4)C3)c(F)c3[nH]c(C(=O)N4CCN(c5ncccc5OC5CC5)CC4)cc23)cnc2ccccc12 [Example I-447] | < 0.1 µM
COc1ccccc1-c1cc(C2=CCCN(C(=O)CCn3ccnn3)C2)c(F)c2[nH]c(C(=O)N3CCN(c4cccc(=O)n4C)CC3)cc12 [Example I-1020] | < 0.1 µM
COc1ccccc1-c1cc(C2=CCCN(C(=O)CCn3ccnn3)C2)c(F)c2[nH]c(C(=O)N3CCN(c4c(C)ccc5[nH]ncc45)CC3)cc12 [Example I-959] | < 0.1 µM
COc1cc(C)ncc1-c1cc(C2=CCCN(C(=O)CCn3ccnn3)C2)c(F)c2[nH]c(C(=O)N3CCN(c4ncc(F)cc4OC)CC3)cc12 [Example I-667] | > 100 µM
COc1cnccc1-c1cc(C2=CCCN(C(=O)CCn3ccnn3)C2)c(F)c2[nH]c(C(=O)N3CCN(c4ccccc4OC)CC3)cc12 [Example I-407] | > 100 µM
COc1ccc(-c2cc(C3=CCCN(C(=O)CCn4ccnn4)C3)c(F)c3[nH]c(C(=O)N4CCN(c5ncc(F)cc5OC)CC4)cc23)c(C2CC2)c1 [Example I-641] | < 0.1 µM
CCc1cc(C)ncc1-c1cc(C(=O)N2CCN(c3ncc(F)cc3OC)CC2)cc2cc(C3=CCCN(C(=O)CCn4ccnn4)C3)n(CC3CC3)c12 [Example I-533] | < 0.1 µM
COc1cc(F)c(F)cc1-c1cc(C2=CCCN(C(=O)CCn3ccnn3)C2)c(F)c2[nH]c(C(=O)N3CCN(c4ccccc4OC)CC3)cc12 [Example I-600] | < 0.1 µM
CCc1cc(C(F)F)ncc1-c1cc(C2=CCCN(C(=O)CCn3ccnn3)C2)c(F)c2[nH]c(C(=O)N3Cc4cnn(CC)c4C3)cc12 [Example I-767] | > 100 µM

Other lines, results leading:

IC50 | Compound
< 0.1 µM | COc1cccnc1N1CCN(C(=O)c2cc3c(-c4ccccc4C#N)cc(C4=CCCN(C(=O)CCn5ccnn5)C4)c(F)c3[nH]2)CC1 [Example I-573]
< 0.1 µM | COc1ccccc1-c1cc(C2=CCCN(C(=O)CCn3ccnn3)C2)c(F)c2[nH]c(C(=O)N3CCN(c4ccc(O)cc4)CC3)cc12 [Example I-867]
< 0.1 µM | COc1cccc(C2=CCN(C(=O)c3cc4c(-c5cnccc5OC)cc(C5=CCCN(C(=O)CCn6ccnn6)C5)c(F)c4[nH]3)CC2)n1 [Example I-443]
< 0.1 µM | COc1ccccc1-c1cc(C2=CCCN(C(=O)CCn3ccnn3)C2)c(F)c2[nH]c(C(=O)N3CCN(c4cn(C)c(=O)n(C)c4=O)CC3)cc12 [Example I-949]
< 0.1 µM | COc1ccccc1-c1cc(C2=CCCN(C(=O)CCn3ccnn3)C2)c(F)c2[nH]c(C(=O)N3CCc4cnn(C)c4C3)cc12 [Example I-516]
< 0.1 µM | COc1ccccc1-c1cc(C2=CCCN(C(=O)CCn3ccnn3)C2)c(F)c2[nH]c(C(=O)N3CCN(c4c(OC)cccc4OC)CC3)cc12 [Example I-350]
< 0.1 µM | COc1cc(-c2cc(C3=CCCN(C(=O)CCn4ccnn4)C3)cc3cc(C(=O)N(C)C)oc23)cc(OC)c1OC [Example I-1088]
< 0.1 µM | COc1ccccc1-c1cc(C2=CCCN(C(=O)CCn3ccnn3)C2)c(F)c2[nH]c(C(=O)N3CCN(c4nc(C)cs4)CC3)cc12 [Example I-1024]
< 0.1 µM | CCc1ccncc1-c1cc(C2=CCCN(C(=O)CC(=O)O)C2)c(F)c2[nH]c(C(=O)N3CCN(c4ncc(F)cc4OC)CC3)cc12 [Example I-786]
< 0.1 µM | COc1ccccc1-c1cc(C2=CCCN(C(=O)CCn3ccnn3)C2)c(F)c2[nH]c(C(=O)N3CC(Oc4cccnc4)C3)cc12 [Example I-992]
< 0.1 µM | COc1ccccc1-c1cc(C2=CCCN(C(=O)CCn3ccnn3)C2)c(F)c2[nH]c(C(=O)N3CCN(c4ncc(F)cc4OC)CC3)cc12 [Example I-370]
< 0.1 µM | COc1ccccc1-c1cc(C2=CCCN(C(=O)CCn3ccnn3)C2)c(F)c2[nH]c(C(=O)N3CCN(C)CC3)cc12 [Example I-841]
< 0.1 µM | CC(=O)N1CCN(c2cc(C3=CCCN(C(=O)CCn4ccnn4)C3)cc3cc(C(=O)N(C)C)oc23)CC1 [Example I-1186]
< 0.1 µM | COc1ccccc1-c1cc(C2=CCCN(C(=O)CCn3ccnn3)C2)c(F)c2[nH]c(C(=O)N3CCC(N(C)C4CC4)C3)cc12 (stereo not drawn) [Example I-898]
< 0.1 µM | COc1cccnc1N1CCN(C(=O)c2cc3c(-c4ccc(C#N)cn4)cc(C4=CCCN(C(=O)CCn5ccnn5)C4)c(F)c3[nH]2)CC1 [Example I-575]
< 0.1 µM | CCOc1ccncc1-c1cc(C2=CCCN(C(=O)CCn3ccnn3)C2)c(F)c2[nH]c(C(=O)N3CCN(c4nccnc4OC)CC3)cc12 [Example I-478]
< 0.1 µM | CNc1ccc(-c2cc(C3=CCCN(C(=O)CCn4ccnn4)C3)cc3cc(C(=O)N(C)C)oc23)c(OC)c1 [Example I-1056]
< 0.1 µM | CN(C)C(=O)c1cc2cc(C3=CCCN(C(=O)CCn4ccnn4)C3)cc(C3CCNCC3)c2o1 [Example I-1048]
< 0.1 µM | COc1ccccc1-c1cc(C2=CCCN(C(=O)CCn3cccn3)C2)c(F)c2[nH]c(C(=O)N3CCN(c4ncc(F)cc4OC)CC3)cc12 [Example I-687]
< 0.1 µM | COc1ccccc1-c1cc(C2=CCCN(C(=O)CCn3ccnn3)C2)c(F)c2[nH]c(C(=O)N3CCN(C(=O)N(C)C)CC3)cc12 [Example I-866]
< 0.1 µM | COc1cc(F)cnc1N1CCN(C(=O)c2cc3c(-c4cccc(-c5ccncc5)c4)cc(C4=CCCN(C(=O)CCn5ccnn5)C4)c(F)c3[nH]2)CC1 [Example I-626]
